According to patent publication US7915383B2, “Method of separating a peptidoglycan recognition protein from a hemolymph Tenebrio molitor larvae” (Yuhan Corporation, priority 2006, dated 2011):

Key:
[1] = test system: natural PGN-dependent PO activity in the hemolymph of Tenebrio molitor larvae; experiment: Inhibition of natural PGN-dependent PO activity by synthetic PGN; format: biochemical
Procedure: (§1) PO activity was assayed according to a Pye-spectrophotometric method using a substrate solution (4-methylcatechol, and 4-hydroxyproline ethylester in HCl). 4-methylcatechol was oxidized to quinone by PO, which was then converted through a non-enzymatic reaction with 4-hydroxyproline ethylester in HCl to 4-(4′-hydroxyl-2′-carbethoxy-1′-pyrroline)-5-methyl-o-benzoquinone, a stable compound having maximum absorbance at 520 nm (see FIG. 2)
Each of 10 μl (1 μg) of a 10% β-1,3-glucan solution, 10 μl. (1 μg) of a 10% S. aureus PGN solution, 10 μl (10 ng) of a 10% M. luteus PGN solution, and 10 μl (1 μg) of a 10% synthetic PGN (for each of the compounds of Formulae 1-4) solution was incubated together with 30 μl (protein 350 μg) of the hemolymph of Tenebrio molitor larvae at 30° C. for 5 minutes. Then, 4 μl of 4-methylcatechol (250 mM), 16 μl of 4-hydroxyproline ethylester (62.5 mM) in HCl, and 5 μl of 1M CaCl2 (10 mM) were added thereto. […] The reaction mixture was incubated at 30° C. and the absorbance of the reaction solution was measured at 520 nm (see FIG. 3).
Meanwhile, PO activity was also measured in the presence of 1 μg of S. aureus PGN and 1 μg of each of the synthetic PGNs.
Furthermore, PO activity was also measured in the presence of 1 μg of S. aureus PGN with an incremental addition of the synthetic PGN of Formula 3 (0.2, 0.4, 0.8, and 1.5 μg).

amidase activity = experiment: Amidase activity assay with Boc-Phe-Ser-Arg-MCA substrate; format: biochemical, Tenebrio molitor; settings: S. aureus PGN 1 μg plus synthetic PGN, 40 μM Boc-Phe-Ser-Arg-MCA, 30° C., fluorescence 380/460 nm; FIG. 6
Procedure: 10 μl of a 10% gram-positive S. aureus PGN (final concentration: 1 μg) solution and 10 μl of a 10% synthetic PGN (the compound 35 of Formula 3) solution were incubated in the presence of 40 μM trypsin MCA (t-butyloxycarbonyl-benzyl-L-phenylalanyl-L-seryl-L-arginine-4-methylcoumaryl-7-amide; Boc-Phe-Ser-Arg-MCA) as a substrate at 30° C., and fluorescence was measured at 380 nm (excitation wavelength) and 460 nm (emission wavelength) using a fluorescence spectrophotometer (model UV-160A, Shimadzu).

[2] = test system: PGN-dependent pro-PO cascade in the hemolymph of Tenebrio molitor larvae; experiment: PO activity assay (Pye-spectrophotometric method): effect of natural or synthetic PGN on PO activation; format: biochemical; settings: 30 μl hemolymph (protein 350 μg), 1 μg test substance (10 ng M. luteus PGN), 30° C.; FIG. 3
Procedure: as §1
Each of 10 μl (1 μg) of a 10% β-1,3-glucan solution, 10 μl. (1 μg) of a 10% S. aureus PGN solution, 10 μl (10 ng) of a 10% M. luteus PGN solution, and 10 μl (1 μg) of a 10% synthetic PGN (for each of the compounds of Formulae 1-4) solution was incubated together with 30 μl (protein 350 μg) of the hemolymph of Tenebrio molitor larvae at 30° C. for 5 minutes. Then, 4 μl of 4-methylcatechol (250 mM), 16 μl of 4-hydroxyproline ethylester (62.5 mM) in HCl, and 5 μl of 1M CaCl2 (10 mM) were added thereto. Then, 20 mM Tris-HCl (pH 8.0) was added to a final volume of 500 μl. The reaction mixture was incubated at 30° C. and the absorbance of the reaction solution was measured at 520 nm (see FIG. 3).

Substance | inhibition of PO activity with incremental addition of synthetic PGN ([1]; 1 μg of S. aureus PGN plus 0.2, 0.4, 0.8 and 1.5 μg synthetic PGN, FIG. 5) | inhibition of PGN-dependent PO activity ([1]; in the presence of 1 μg of S. aureus PGN and 1 μg of each synthetic PGN, FIG. 4) | inhibition of amidase activity (amidase activity) | activation of the PGN-dependent pro-PO cascade (PO activity, absorbance at 520 nm) [2]
Tetrasaccharide Tetrapeptide [compound 35] | inhibited in a synthetic PGN concentration-dependent manner | strongest competitive inhibitor | same inhibition pattern as the PO activity | –
β-1,3-glucan | – | – | – | activated
